The test system of this test is gastric acid secretion. Description: perfused rat stomach preparation (histamine-stimulated acid secretion, perfusate pH). The class given is in vivo, male Wistar rats. The note with it: bolus intravenous injection, maximal reduction in hydrogen-ion concentration as percentage of control, histamine infusion, urethane anaesthetised rat. On the procedure:
The ability of the compounds of the invention to modify the pH of gastric acid secretion was investigated as follows:
The perfused rat stomach preparation
The lumen of the stomach of male Wistar rats (approximately 200 g bodyweight) was perfused, via a cannula designed to reduce the dead space of the stomach, with 5% glucose solution (37^00) at the rate of 3 ml/min. The perfusate was forced over the surface of the secretory mucosa only, the antrum being excluded. The effluent then passed over a microflow type glass pH electrode via collecting funnel situated in the non-glandular forestomach.
The secretagogue histamine was administered as a constant intravenous infusion to produce a steady rate of acid secretion. Test compounds were administered in solution as bolus intravenous injections and any effect on the pH of the perfusate noted. The perfusate pH was recorded on a potentiometric recorder and anti-secretory responses were measured in terms of the maximal reduction in hydrogen-ion concentration expressed as a percentage of the 'control' concentrations.

Where the note is “dose 2 (µmol/kg)”, `[O-][S+](Cc1cc(OCc2ccc(F)cc2)ccn1)c1nc2ccccc2[nH]1` (centres unmarked) [Example 21b, 2-[(4-(4-Fluorobenzyloxy)pyrid-2-yl)methylsuphinyl]-benzimidazole] gave an Inhibition of 100%.

With `Cc1c(Oc2ccccc2)ccnc1C[S+]([O-])c1nc2ccccc2[nH]1` (centres unmarked) [Example 20b, 2-[(3-Methyl-4-phenoxypyrid-2-yl)methylsulphinyl]-benzimidazole], the Inhibition (dose 2 (µmol/kg)) is recorded as 72%.

`Cc1c(OCc2ccccc2)ccnc1C[S+]([O-])c1nc2ccccc2[nH]1` (centres unmarked) [Example 1b, 2-[(4-Benzyloxy-3-methylpyrid-2-yl)methylsulphinyl]-benzimidazole] registered an Inhibition (dose 0.5 µmol/kg) of 82%.

Consider `Cc1cnc(C[S+]([O-])c2nc3ccccc3[nH]2)cc1OCc1ccccc1` (centres unmarked) [Example 24b], for which, where the note is “dose 2.5 (µmol/kg)”, the Inhibition is reported as 91%.

Take `[O-][S+](Cc1cc(OCCc2ccccc2)ccn1)c1nc2ccccc2[nH]1` (centres unmarked) [Example 18b, 2-[(4'-Phenethyloxypyrid-2-yl)methylsulphinyl]benzimidazole]: the Inhibition (dose 2 (µmol/kg)) is listed as 100%.

For `Cc1c(OCc2ccc(F)cc2)ccnc1C[S+]([O-])c1nc2ccccc2[nH]1` (centres unmarked) [Example 10b, 2-[(4-[4-Fluorobenzyloxy]-3-methylpyrid-2-yl)methylsulphinyl]benzimidazole], the Inhibition (dose 1 (µmol/kg)) is on record as 80%.

With `COc1ccc(COc2ccnc(C[S+]([O-])c3nc4ccccc4[nH]3)c2C)cc1` (centres unmarked) [Example 7b, 2-[(4-[4-methoxybenzyloxy]-3-methylpyrid-2-yl)methylsulphinyl]benzimidazole], the Inhibition (dose 2 (µmol/kg)) was found to be 86%.

With “2-[(4-[3,5-dichlorobenzyloxy]-3-methylpyrid-2-yl)methyl sulphinyl]benzimidazole [Example 8b]”, for the setting “dose 2 (µmol/kg)”, the Inhibition worked out at 80%.

As usually defined, the Inhibition is the share of the control response that was lost under treatment.

For the origin of these results see patent EP0167943A2, “Benzimidazole derivatives, process for their preparation, and their use as pharmaceuticals” (BEECHAM GROUP PLC, priority 1984, dated 1986).
